Legend:
[1] = molecular target: human A1 adenosine receptor (Homo sapiens (Human), UniProt P30542); assay: Inhibition of forskolin-stimulated adenylyl cyclase activity via A1 receptor; assay type: biochemical; settings: membranes of CHO cells stably transfected with human A1 receptor
Procedure: (§1) The A1 and A3 receptor-mediated inhibition of forskolin-stimulated adenylyl cyclase activity was tested in membranes prepared from CHO cells stably transfected with the human A1 and A3 adenosine receptors. The A2a and A2b receptor-mediated stimulation of basal cyclase activity was tested in membranes prepared from CHO cells stably transfected with the human A2a and […] adenosine receptors
(§2) Adenylyl Cyclase Inhibition Via Human Adenosine A1 and A3 Receptors

[2] = Clinical study: single topical ocular dose, intraocular pressure in adults with OHT or POAG; assay type: in vivo, human; settings: for IOP difference from the placebo response: 2 hours postdose
Excerpt: The clinical study described herein is a multi-center, randomized, double-blind, placebo-controlled, dose-escalation study of a single topical ocular application of the study drug (i.e., Compound A or placebo) to the one study eye of adults with OHT or POAG. The “study eye” was defined as the eye with the higher mean IOP, recorded between 7:00 and 8:00 AM on the day prior to dosing (Day 0).
The adult subjects were sequentially assigned to 1 of 7 treatment groups.
Masked-intraocular pressures were determined in duplicate with a Goldmann tonometer following traditional corneal anesthesia. […] Subsequent bilateral external eye examinations and masked-IOP determinations were performed at 9:00 AM, 10:00 AM, 12:00 noon, and 2:00 PM (each ±5 minutes), corresponding to 1, 2, 4, and 6 hours post study drug application. In addition in the 700 mcg cohort an IOP determination was performed at 6:00 PM (18:00), corresponding to 10 hours post study drug application.
The study drug was only administered to one eye per subject (the study eye). Dosages ranged from 2.5 micrograms to 350 micrograms per 50 microliter drop, per respective treatment group. A board-certified ophthalmologist (or comparably trained designee) administered the study drug. Randomized enrollment of subjects into each successive treatment groups was predicated upon the review and approval of the safety data from the completed treatment groups by the Safety Research Committee, consisting of three qualified physicians (i.e., an internist, cardiologist, and ophthalmologist).

[3] = molecular target: T1, A3 adenosine receptor (Homo sapiens (Human), UniProt P0DMS8); assay: Adenosine receptor binding selectivity A1 > A3; settings: ratio of Ki values
Procedure: (§3) As used herein, the term “selective adenosine A1 agonist” means an A1 agonist that has a high affinity to the A1 receptor while simultaneously having a low affinity for the A2 and A3 adenosine receptors.
(§4) Membranes for radioligand binding experiments are prepared from fresh or frozen cells as described in Klotz et al., Naunyn-Schmiedeberg's Arch. […] The cell suspension is then homogenized in ice-cold hypotonic buffer (5 mM Tris/HCl, 2 mM EDTA, pH 7.4) and the homogenate is spun for 10 minutes (4° C.) at 1,000 g.
(§5) Nonspecific binding is determined in the presence of 100 μM R-PM and 1 mM theophylline, respectively. For details see Klotz et al., Naunyn-Schmiedeberg's Arch.

[4] = molecular target: A2A adenosine receptor (Homo sapiens (Human), UniProt P29274); assay: Adenosine receptor binding selectivity A1 > A2A; settings: ratio of Ki values
Procedure: as §3, §4, §5

[5] = molecular target: T1, A3 adenosine receptor; assay: Inhibition of forskolin-stimulated adenylyl cyclase activity via A3 receptor; assay type: biochemical; settings: membranes of CHO cells stably transfected with human A3 receptor
Procedure: as §1, §2

T1 sequence (P0DMS8 whole entry): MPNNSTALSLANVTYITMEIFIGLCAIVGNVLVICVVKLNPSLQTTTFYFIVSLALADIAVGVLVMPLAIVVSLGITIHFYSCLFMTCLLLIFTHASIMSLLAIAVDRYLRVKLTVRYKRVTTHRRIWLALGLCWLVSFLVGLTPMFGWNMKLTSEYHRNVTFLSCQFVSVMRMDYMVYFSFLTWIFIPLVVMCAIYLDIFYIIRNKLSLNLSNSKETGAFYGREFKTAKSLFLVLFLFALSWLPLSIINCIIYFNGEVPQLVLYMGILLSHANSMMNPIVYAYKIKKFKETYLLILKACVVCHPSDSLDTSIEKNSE
Sequence of A2A adenosine receptor (P29274 whole entry): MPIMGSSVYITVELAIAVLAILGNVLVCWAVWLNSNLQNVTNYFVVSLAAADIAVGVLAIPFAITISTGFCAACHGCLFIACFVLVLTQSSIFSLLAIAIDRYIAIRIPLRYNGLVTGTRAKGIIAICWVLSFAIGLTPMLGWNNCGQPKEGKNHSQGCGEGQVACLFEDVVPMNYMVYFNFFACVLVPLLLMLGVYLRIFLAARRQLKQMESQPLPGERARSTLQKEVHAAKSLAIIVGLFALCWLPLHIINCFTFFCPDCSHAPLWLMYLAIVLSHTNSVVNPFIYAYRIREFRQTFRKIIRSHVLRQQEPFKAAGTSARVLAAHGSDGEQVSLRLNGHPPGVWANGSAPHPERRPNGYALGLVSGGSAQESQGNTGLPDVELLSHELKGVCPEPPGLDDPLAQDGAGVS
Sequence of human A1 adenosine receptor (P30542 whole entry): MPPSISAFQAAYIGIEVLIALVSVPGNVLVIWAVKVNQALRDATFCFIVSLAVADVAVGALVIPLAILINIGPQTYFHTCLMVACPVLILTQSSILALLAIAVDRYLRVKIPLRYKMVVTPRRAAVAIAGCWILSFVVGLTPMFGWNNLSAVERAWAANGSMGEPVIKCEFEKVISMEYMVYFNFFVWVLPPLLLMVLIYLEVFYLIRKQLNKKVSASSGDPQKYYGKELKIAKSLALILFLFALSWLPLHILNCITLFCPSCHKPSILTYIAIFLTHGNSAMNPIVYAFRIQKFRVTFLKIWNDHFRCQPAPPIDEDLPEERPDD

Structure (SMILES)	EC50 [1]	A1 > A3 SELECTIVITY [KiA3(nm)/KiA1(nm)] [3]	A1 > A2A SELECTIVITY [KiA2(nm)/KiA1(nm)] [4]	EC50 [5]	other results
O=[N+]([O-])OC[C@H]1O[C@@H](n2cnc3c(NC4CCCC4)ncnc32)[C@H](O)[C@@H]1O [Compound A, ((2R,3S,4R,5R)-5-(6-(cyclopentylamino)-9H-purin-9-yl)-3,4-dihydroxytetrahydrofuran-2-yl)methyl nitrate]	17 nM	–	–	–	IOP difference from the placebo response ([2]; 350 mcg treatment group): Statistically significant differences from the placebo response; duration of the decrease in IOP ([2]; 350 mcg treatment group, entire observation period): ~6 h; IOP difference from the placebo response ([2]; 700 mcg treatment group): Statistically significant differences from the placebo response; dose group with % of subjects achieving greatest IOP decrement (responder analysis) ([2]; across 7 dose groups): 350 µg; dose with largest mean and median decreases in IOP ([2]; across 7 dose groups 2.5-700 mcg): 350 µg; decrement in IOP from the Day 1 pre-dose baseline ([2]; single topical ocular dose 2.5-700 mcg, study eye, OHT or POAG): Dose-related decrement in IOP; responder analysis: subjects with categorical mean IOP decreases from baseline of ≧10%, ≧15% or ≧20% ([2]; throughout the observation period (~6 hrs)): showed a dose-response; time post-dose of largest difference in IOP between drug-treated and placebo-treated eyes ([2]; topical ocular doses, human subjects): approximately 2 hours
O=S(=O)([O-])OC[C@H]1O[C@@H](n2cnc3c(NC4CCCC4)ncnc32)[C@H](O)[C@@H]1O.[Na+] [Compound C, sodium ((2R,3S,4R,5R)-5-(6-(cyclopentylamino)-9H-purin-9-yl)-3,4-dihydroxytetrahydrofuran-2-yl)methyl sulfate]	–	251	2250	–	–
O=[N+]([O-])OC[C@H]1O[C@@H](n2cnc3c(NC4CCOC4)ncnc32)[C@H](O)[C@@H]1O (stereo partly drawn) [Compound D, ((2R,3S,4R,5R)-3,4-dihydroxy-5-(6-(tetrahydrofuran-3-ylamino)-9H-purin-9-yl)tetrahydrofuran-2-yl)methyl nitrate]	–	202	>9434	–	–
O=[N+]([O-])OC[C@H]1O[C@@H](n2cnc3c(NC4CCCCC4)ncnc32)[C@H](O)[C@@H]1O [Compound E, ((2R,3S,4R,5R)-5-(6-(cyclohexylamino)-9H-purin-9-yl)-3,4-dihydroxytetrahydrofuran-2-yl)methyl nitrate]	29 nM	1098	878	> 100000 nM	–
O=[N+]([O-])OC[C@H]1O[C@@H](n2cnc3c(NC4CC5CCC4C5)ncnc32)[C@H](O)[C@@H]1O (stereo partly drawn) [Compound F, ((2R,3S,4R,5R)-5-(6-(bicycle-[2.2.1]-heptan-2-ylamino)-9H-purin-9-yl)-3,4-dihydroxytetrahydrofuran-2-yl)methyl nitrate]	–	260	3945	–	–
O=S(=O)([O-])OC[C@H]1O[C@@H](n2cnc3c(NC4CCCCC4)nc(Cl)nc32)[C@H](O)[C@@H]1O.[Na+] [Compound G, sodium ((2R,3S,4R,5R)-5-(2-chloro-6-(cyclohexylamino)-9H-purin-9-yl)-3,4-dihydroxytetrahydrofuran-2-yl)methyl sulfate]	19 nM	130	200	> 100000 nM	–

Source: patent US8470800B2, “Method of reducing intraocular pressure in humans” (Inotek Pharmaceuticals Corporation, priority 2009, dated 2013)
